Values quoted from earlier work as cited in patent US8071619B2, “Injectable liquid formulation of paracetamol” (priority 2003, dated 2011).

Settings: aqueous solution; K. T. Koshy et al., 1961

Structure (SMILES): CC(=O)Nc1ccc(O)cc1 [paracetamol, N-(4-hydroxy-phenyl)acetamide]
- pH at which the rate of degradation of paracetamol is minimal: ~6
